In general, half-life refers to the time in which the quantity being followed falls by half.

The results in this text go back to patent US8318668B2 (Trustees of Tufts College, priority 2005, dated 2012).

Square brackets hold non-standard residues; d marks the D form. Ends that are not written are not given here. Peptide text beside a SMILES is read from it. Tle = CC(C)(C)[C@H](N)C(=O)O A value given as a limit tells only on which side of the number the result lay.

One data set addresses human GLP-1 receptor (Homo sapiens, UniProt P43220). The following applies: peptide concentration 300 nM.
The test system of data set [1] is db mice. Kind of data set: Dose response of blood glucose lowering in diabetic (db) mice. It is filed as in vivo. The conditions noted are these: blood glucose 60 minutes post injection. An excerpt:
The data were fit to a sigmoidal dose response curve.

In data set [2] the test system is db mice. Kind of data set: Time course of blood glucose lowering in db mice. The conditions noted are these: 8 μg injected; for duration of action (in words): db / diabetic mice.
A further data set addresses rat DPP IV (Rattus norvegicus, UniProt P14740). Kind of data set: Digestion of model hexapeptides by rat DPP IV (LCMS). The following applies: for half-life: pH 8. An excerpt:
The data were fit to a single phase exponential equation.
DPP-IV cleaves the N-terminal dipeptide from peptides with either Pro or Ala in the penultimate position (P2).

Chain of rat DPP IV (P14740 whole entry): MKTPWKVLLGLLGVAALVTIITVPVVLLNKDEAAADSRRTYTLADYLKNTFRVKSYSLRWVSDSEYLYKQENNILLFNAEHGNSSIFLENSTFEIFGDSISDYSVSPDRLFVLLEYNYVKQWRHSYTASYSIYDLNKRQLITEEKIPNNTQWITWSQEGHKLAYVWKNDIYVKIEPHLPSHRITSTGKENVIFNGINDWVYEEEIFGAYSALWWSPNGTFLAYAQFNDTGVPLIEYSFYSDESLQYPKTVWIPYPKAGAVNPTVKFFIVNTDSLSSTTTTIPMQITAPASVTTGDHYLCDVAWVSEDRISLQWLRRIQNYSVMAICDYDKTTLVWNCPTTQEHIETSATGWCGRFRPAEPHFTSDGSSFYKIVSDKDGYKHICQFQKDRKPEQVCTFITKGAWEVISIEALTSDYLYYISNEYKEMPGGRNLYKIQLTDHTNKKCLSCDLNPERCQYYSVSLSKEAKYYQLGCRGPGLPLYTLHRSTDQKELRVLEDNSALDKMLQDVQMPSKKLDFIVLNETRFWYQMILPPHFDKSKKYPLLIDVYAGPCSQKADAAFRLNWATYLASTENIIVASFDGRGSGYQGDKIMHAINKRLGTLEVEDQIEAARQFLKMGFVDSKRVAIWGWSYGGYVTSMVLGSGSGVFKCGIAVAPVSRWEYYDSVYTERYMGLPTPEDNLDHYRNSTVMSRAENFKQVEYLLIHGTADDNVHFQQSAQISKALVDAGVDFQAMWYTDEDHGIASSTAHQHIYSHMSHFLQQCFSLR
Chain of human GLP-1 receptor (P43220 24-463): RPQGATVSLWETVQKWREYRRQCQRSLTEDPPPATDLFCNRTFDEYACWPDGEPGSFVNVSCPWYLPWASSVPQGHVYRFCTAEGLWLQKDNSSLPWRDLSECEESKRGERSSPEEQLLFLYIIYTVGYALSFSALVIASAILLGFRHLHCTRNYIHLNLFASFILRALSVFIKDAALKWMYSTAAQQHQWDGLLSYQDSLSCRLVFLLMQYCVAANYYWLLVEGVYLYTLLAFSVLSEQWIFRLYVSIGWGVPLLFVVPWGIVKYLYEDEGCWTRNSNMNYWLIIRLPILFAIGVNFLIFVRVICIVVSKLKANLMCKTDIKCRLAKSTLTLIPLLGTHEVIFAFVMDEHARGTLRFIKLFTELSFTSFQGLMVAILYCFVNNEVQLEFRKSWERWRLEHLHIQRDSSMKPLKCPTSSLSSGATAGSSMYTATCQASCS

As to `CC[C@H](C)[C@H](NC(=O)[C@H](Cc1ccccc1)NC(=O)[C@H](CCC(=O)O)NC(=O)[C@H](CCCCN)NC(=O)[C@H](C)NC(=O)[C@H](C)NC(=O)[C@H](CCC(N)=O)NC(=O)CNC(=O)[C@H](CCC(=O)O)NC(=O)[C@H](CC(C)C)NC(=O)[C@H](Cc1ccc(O)cc1)NC(=O)[C@H](CO)NC(=O)[C@H](CO)NC(=O)[C@@H](NC(=O)[C@H](CC(=O)O)NC(=O)[C@H](CO)NC(=O)[C@@H](NC(=O)[C@H](Cc1ccccc1)NC(=O)[C@@H](NC(=O)CNC(=O)[C@@H](NC(=O)[C@H](C)NC(=O)[C@@H](N)Cc1c[nH]cn1)C(C)(C)C(=O)O)[C@@H](C)O)[C@@H](C)O)C(C)C)C(=O)N[C@@H](C)C(=O)N[C@@H](Cc1c[nH]c2ccccc12)C(=O)N[C@@H](CC(C)C)C(=O)N[C@H](C(=O)N[C@@H](CCCCN)C(=O)NCC(=O)N[C@@H](CCCNC(=N)N)C(N)=O)C(C)C` [TPA1B4, HAXGTFTSDVSSYLEGQAAKEFIAWLVKGR-NH2], the “amount of GLP-1 receptor activation as measured by cAMP production” value on human GLP-1 receptor is “the same”. Also, in the data set with db mice [1], the “95% confidence interval of EC50 of glucose lowering effect” value fell in the range of 0.1 to 1.92 µg and the “EC50 of glucose lowering effect” value was 0.4 µg. Further, in the data set on db mice [2] (db mice), the “blood glucose level reached (in words)” value is “within the range observed for normal mice”, the “duration of blood glucose lowering effect” value is reported as “at least 90 minutes” and the “time of return of blood glucose to hyperglycemic values” is ≤ 4 h.
On to `C[C@H](N)C(=O)N1CCC[C@H]1C(=O)N[C@H](C(=O)N[C@@H](CO)C(=O)N[C@@H](Cc1c[nH]c2ccccc12)C(=O)N[C@@H](CO)C(N)=O)C(C)(C)C` [Ala-Pro-Tle-Ser-Trp-Ser-NH2] (H-AP[Tle]SWS-NH2), for which, at rat DPP IV, the “cleavage by rat DPP IV (in words)” value is on record as “No reaction was observed”.
Turning to `CC[C@H](C)[C@H](NC(=O)[C@H](Cc1ccccc1)NC(=O)[C@H](CCC(=O)O)NC(=O)[C@H](CCCCN)NC(=O)[C@H](C)NC(=O)[C@H](C)NC(=O)[C@H](CCC(N)=O)NC(=O)CNC(=O)[C@H](CCC(=O)O)NC(=O)[C@H](CC(C)C)NC(=O)[C@H](Cc1ccc(O)cc1)NC(=O)[C@H](CO)NC(=O)[C@H](CO)NC(=O)[C@@H](NC(=O)[C@H](CC(=O)O)NC(=O)[C@H](CO)NC(=O)[C@@H](NC(=O)[C@H](Cc1ccccc1)NC(=O)[C@@H](NC(=O)CNC(=O)[C@H](CCC(=O)O)NC(=O)[C@H](C)NC(=O)[C@@H](N)Cc1c[nH]cn1)[C@@H](C)O)[C@@H](C)O)C(C)C)C(=O)N[C@@H](C)C(=O)N[C@@H](Cc1c[nH]c2ccccc12)C(=O)N[C@@H](CC(C)C)C(=O)N[C@H](C(=O)N[C@@H](CCCCN)C(=O)NCC(=O)N[C@@H](CCCNC(=N)N)C(N)=O)C(C)C` [GLP-1, reference compound], the “duration of action (in words)” value in the data set with db mice [2] is on record as “largely gone by 60 minutes”.
Compound “APISWS-NH2 [Ala-Pro-Ile-Ser-Trp-Ser-NH2]” showed a half-life at rat DPP IV of 41 min.
In the case of “HAXGTFTSDVSSYLEGQAAKEFIAWLVKGRZ-NH2 (HAXGTFTSDVSSYLEGQAAKEFIAWLVKGRX; β-dimethyl Asp, biphenylalanine, C-terminal amide) [DGS69]”, the “duration of action (in words)” value in the data set with db mice [2] is “significantly increased the duration”.
Take “APLSWS-NH2 [Ala-Pro-Leu-Ser-Trp-Ser-NH2]”: at rat DPP IV, the half-life came out at 49 min.
